Measured values taken from patent US20050282818A1, “Ubiquitin ligase inhibitors” (Rigel Pharmaceuticals, Inc., priority 2004, published 2005).
Where two headings read alike, the source gives them in different places.

Tests used:
TRAF6/Uev1A/Ubc13 = molecular target: T1, TRAF6/Uev1A/Ubc13 (Homo sapiens, UniProt Q9Y4K3); assay: TRAF6/Uev1A/Ubc13 plate-based ubiquitin ligase assay; type: biochemical
T1 sequence (Q9Y4K3 1-522): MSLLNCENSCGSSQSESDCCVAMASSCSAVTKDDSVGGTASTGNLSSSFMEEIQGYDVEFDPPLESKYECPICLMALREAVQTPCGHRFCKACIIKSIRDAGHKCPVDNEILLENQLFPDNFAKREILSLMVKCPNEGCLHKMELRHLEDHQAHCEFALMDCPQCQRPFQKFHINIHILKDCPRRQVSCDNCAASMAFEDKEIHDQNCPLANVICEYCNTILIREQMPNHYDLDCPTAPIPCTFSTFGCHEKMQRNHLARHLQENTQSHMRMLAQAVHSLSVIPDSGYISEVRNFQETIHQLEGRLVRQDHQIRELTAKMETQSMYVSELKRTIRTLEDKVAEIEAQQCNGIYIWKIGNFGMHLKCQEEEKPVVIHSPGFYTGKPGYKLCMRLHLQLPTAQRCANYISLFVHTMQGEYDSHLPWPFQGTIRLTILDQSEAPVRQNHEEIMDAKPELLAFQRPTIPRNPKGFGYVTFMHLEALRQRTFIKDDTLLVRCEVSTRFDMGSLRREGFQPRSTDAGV
Procedure, shortened: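 Ligase activity was read as luminescence from anti-Flag/HRP detection of Flag-ubiquitin bound to casein-blocked Ni-plates alongside His-ubiquitin after a 1 h room-temperature reaction. Buffer: 62.5 mM Tris pH 7.5, 6.25 mM MgCl2, 1.0 mM DTT, 2 μM ATP; E1, Uev1a/Ubc13 and TRAF6 added last to start. IC50s derived across compound concentrations.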

[1] = test system: ICAM-1 expression in A549 cells; assay: ICAM assay (IL-1 induced ICAM-1/CD54 expression in A549 cells); type: cell-based, human
Description: The expression of intercellular adhesion molecule (ICAM)-1 in endothelial cells is pivotal in supporting lymphocyte migration across the vascular endothelium. TNF/IL-1 induces the NF-kB pathway in which NF-kB acts as a transcription factor and activation of NF-kB induces ICAM expression. IkB inhibits NF-KB by binding to it and retaining NF-kB in the cytoplasm. Upon cytokine stimulation, several signaling molecule including TRAF6, IKKs, and TAK1 are activated which lead to the phosphorylation of IkB. Phosphorylated IkB is then ubiquitinated by the SCF complex and degraded by proteasome, thereby releasing NF-kB to translocate into the nucleus. In the nucleus, NF-kB binds to DNA and activates transcription of various genes that are involved in inflammation, cell survival, and apoptosis. The ICAM assay is a primary assay for HTS as well as a cell based assay for TRAF6 inhibitors.
The following materials are used 96-well plates; F12K complete medium that includes 10% FBS and 1% P/S (penicillin/streptomycin); 1×PBS; 5 ug/ml IL-1, Human CD54 (CALTAG Laboratory, Cat#MHCD5400-4); anti-mouse-IgG (Jackson Lab, Cat#115-035 146); and A549 cells.
Procedure. 10,000 A549 cells/well were seeded in 100 μl F12K complete medium in a 96-well white plate. The seeded plate was incubate at 37° C. incubator in 5% CO2 overnight. After the overnight incubation, 4 μl of diluted test compound was added and incubated for 1 hour at 37° C. After the 1 hour incubation, 4 μl of 25 ng/ml IL-1 was added to each well and the cells were stimulated at 37° C. for 4 hours.
After stimulation, the cells were stained with CD54 (1:1000 diluted with medium) and anti-mouse IgG (1:1100 diluted with medium) for 1 hour. Subsequently, the medium was removed and each well was washed with 200 μl of PBS three times. Detection of activity was performed by addition of 100 μl/well of lumino substrate.

APC11/APC2 = APC11/APC2 (Homo sapiens, UniProt Q9NYG5+Q9UJX6); assay: APC-11/APC-2 ligase assay (APC auto ubiquitination); type: biochemical; details: APC assay
Description: For the assays described below, the TRAF6/Uev1A/UBC13 assay is the biochemical plate-based assay of TRAF6 ligase activity using Ubc13 as the E2 enzyme. The gel-based assay is the biochemical solution-based TRAF6 ligase assay (by SDS-PAGE and Western blot) to confirm the plate-based ELISA assay. The APC assay is an assay which is another E3 ligase (APC2/APC11) biochemical assay.
E3 (His APC11/APC2— “APC”) auto ubiquitination was measured as described in U.S. patent application Ser. No. 09/826,312 (Publication No. U.S. 2002 0042083 A1), which is incorporated by reference in its entirety. Details of the protocol are described below. Activity in the presence of the compound was determined relative to a parallel control in which only DMSO was added. Values of the IC50 were typically determined using 6 or 8 different concentrations of the compound, although as few as 2 concentrations may be used to approximate the IC50 value.
Nickel coated 96 well plates (Pierce 15242) were blocked for 1 hour with 100 μl of blocking buffer at room temperature. The plates were washed 4 times with 225 μl of 1 […]PBS and 80 μl of the reaction buffer were added that contained 100 ng/well of Flag ubiquitin. To this, 10 μl of the test compound diluted in DMSO were added. After the test compound was added, 10 μl of E1 (human), E2 (Ubch5c), and APC in Protein Buffer was added to obtain a final concentration of 5 ng/well of E1, 20 ng/well of E2 and 100 ng/well of APC. The plates were shaken for 10 minutes and incubated at room temperature for 1 hour. After incubation, the plates were washed 4 times with 225 μl of 1×PBS and 100 μl/well of Antibody Mix were added to each well. The plates were incubated at room temperature for another hour after which they were washed 4 times with 225 μl of 1×PBS and 100 μl/well of Lumino substrate were added to each well. The luminescence was measured by using a BMG luminescence microplate reader. The Blocking Buffer (1% Casein in 1×PBS) was stored at 4° C. until use.
The reaction buffer consisted of 62.5 mM Tris pH 7.6 (Trizma Base—Sigma T 8524), 3 mM MgCl2 (Magnesium Chloride—Sigma M 2393), 1 mM DTT (Sigma D 9779), 2.5 mM ATP (Roche Boehringer Mann Corp. 635 316), 100 ng/well of Flag ubiquitin, 0.1% BSA (Sigma A 7906), and 0.05% Tween 20 (Sigma P 7949).
The Protein Buffer consisted of 20 mM Tris pH 7.6, 10% glycerol (Sigma G 5516) and 1 mM DTT.
The antibody mix consisted of 0.25% BSA (Sigma A 7906) in 1×PBS, 1/50,000 anti Flag (Sigma F 3165), 1/100,000 of anti Mouse IgG HRP (Jackson Imrunoresearch #115 035 146).
The substrate mix consisted of SuperSignal Substrate from Pierce (catalog number 37070ZZ) and was prepared by mixing 100 ml of the peroxide solution, 100 ml of the enhancer solution and 100 ml of Milli Q® water.

A549 cells = assay: Cell proliferation PAD assay, A549; type: cell-based; details: 48 hours
Procedure, shortened: (§1)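 Proliferation was scored by DAPI imaging of fixed cells, counting live, apoptotic and dead cells, after 48 h compound exposure at 37 °C, 5% CO2. Compound, dosed in duplicate 24 h post-plating (2,000 cells/well), came from 6.3-fold dilutions of a 10 mM stock diluted 500-fold.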

H1299 cells = assay: Cell proliferation PAD assay, H1299; type: cell-based; details: 48 hours
Procedure, shortened: as §1

[2] = Homo sapiens, 6pt, read-out: A549 6pt
[3] = Homo sapiens, NCI-H1299, 6pt, read-out: H1299 6pt
[4] = Homo sapiens, 3pt, read-out: A549 3pt
[5] = Homo sapiens, NCI-H1299, 3pt, read-out: H1299 3pt

Sequence of APC11/APC2 (Q9NYG5 whole entry): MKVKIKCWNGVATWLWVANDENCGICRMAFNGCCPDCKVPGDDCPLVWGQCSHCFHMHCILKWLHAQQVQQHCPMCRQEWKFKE
Sequence of APC11/APC2 (Q9UJX6 whole entry): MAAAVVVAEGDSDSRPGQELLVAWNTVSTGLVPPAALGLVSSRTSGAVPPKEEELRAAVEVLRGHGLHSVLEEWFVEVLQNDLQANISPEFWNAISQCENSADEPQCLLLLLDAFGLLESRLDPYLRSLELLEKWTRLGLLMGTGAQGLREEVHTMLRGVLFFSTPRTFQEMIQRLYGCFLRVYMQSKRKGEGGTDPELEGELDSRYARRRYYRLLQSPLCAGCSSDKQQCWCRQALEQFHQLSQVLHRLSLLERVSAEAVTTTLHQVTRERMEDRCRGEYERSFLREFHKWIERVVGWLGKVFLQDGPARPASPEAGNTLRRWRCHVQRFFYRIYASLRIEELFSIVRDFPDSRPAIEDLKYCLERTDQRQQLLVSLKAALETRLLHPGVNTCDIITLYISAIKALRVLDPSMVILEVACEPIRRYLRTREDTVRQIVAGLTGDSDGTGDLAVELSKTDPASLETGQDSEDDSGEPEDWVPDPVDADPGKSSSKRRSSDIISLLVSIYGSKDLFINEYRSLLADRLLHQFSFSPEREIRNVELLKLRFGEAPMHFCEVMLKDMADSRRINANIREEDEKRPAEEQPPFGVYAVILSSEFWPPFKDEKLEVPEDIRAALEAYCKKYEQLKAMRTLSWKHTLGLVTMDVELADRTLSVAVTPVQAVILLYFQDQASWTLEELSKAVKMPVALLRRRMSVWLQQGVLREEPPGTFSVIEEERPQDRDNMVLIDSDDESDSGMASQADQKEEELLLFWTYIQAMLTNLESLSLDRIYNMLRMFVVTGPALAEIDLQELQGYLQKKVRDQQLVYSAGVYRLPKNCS

| SMILES | IC50 (TRAF6/Uev1A/Ubc13) | IC50 ([1]; Homo sapiens, A549, ICAM assay) | IC50 (APC11/APC2) | also measured |
| --- | --- | --- | --- | --- |
| Cc1ccc2nsnc2c1S(=O)(=O)Nc1ccccc1F [compound 452, N-(2-fluorophenyl)-5-methyl-2,1,3-benzthiadiazole-4-sulfonamide] | ≥ 20 µM | ≥ 20 µM | ≥ 20 µM | – |
| O=S(=O)(NC1CCCCC1)c1ccc(Cl)c2nonc12 [compound 448, 7-chloro-N-(cyclohexyl)-2,1,3-benzoxadiazole-4-sulfonamide] | ≥ 20 µM | 1 to 20 µM | ≥ 20 µM | – |
| O=S(=O)(c1ccc(Cl)c2nonc12)N1CCC(Oc2ncccn2)CC1 [compound 225, 4-chloro-7-{[4-(pyrimidin-2-yloxy)pipendin-1-yl]sulfonyl}-2,1,3-benzoxadiazole] | ≥ 20 µM | – | – | IC50 ([1]; ICAM assay): ≥ 20 µM; IC50 (A549 cells; 3pt, read-out: A549 3pt): 1 to 20 µM; IC50 (H1299 cells; 3pt, read-out: H1299 3pt): 1 to 20 µM |
| O=[N+]([O-])c1ccc(N2CCN(c3cnccn3)CC2)c2nonc12 [compound 84] | 1 to 20 µM | – | 1 to 20 µM | – |
| O=S(=O)(c1ccc(Cl)c2nonc12)N1CCN(CCOCCO)CC1 [compound 185, 2-(2-{4-[(7-chloro-2,1,3-benzoxadiazol-4-yl)sulfonyl]piperazin-1-yl}ethoxy)ethanol] | ≥ 20 µM | ≥ 20 µM | – | IC50 (A549 cells; [2]): 1 to 20 µM; IC50 (H1299 cells; [3]): 1 to 20 µM |
| CN1CCN(S(=O)(=O)c2ccc(Cl)c3nonc23)CC1 [compound 189, 4-chloro-7-[(4-methylpiperazin-1-yl)sulfonyl]-2,1,3-benzoxadiazole] | ≥ 20 µM | ≥ 20 µM | – | IC50 (A549 cells; [4]): 1 to 20 µM; IC50 (H1299 cells; [5]): 1 to 20 µM |
| O=S(=O)(c1c(N2CCC(Oc3ncccn3)CC2)ccc2nonc12)N1CCC(Oc2ncccn2)CC1 [compound 236, 5-[4-(1,3-pyrimidin-2-yloxy)piperidin-1-yl]-4-{[4-(1,3-pyrimidin-2-yloxy)piperidin-1-yl]sulfonyl}-2,1,3-benzoxadiazole] | ≥ 20 µM | ≥ 20 µM | – | IC50 (A549 cells; [4]): 1 to 20 µM; IC50 (H1299 cells; [5]): 1 to 20 µM |
| O=c1[nH]c2ccccc2n1C1CCN(S(=O)(=O)c2ccc(Sc3cccc4cccnc34)c3nonc23)CC1 [compound 190, 1-(1-{[7-(quinolin-8-ylthio)-2,1,3-benzoxadiazol-4-yl]sulfonyl}piperidin-4-yl)-1,3-dihydro-2H-benzimidazol-2-one] | 1 to 20 µM | – | 1 to 20 µM | – |

The next lines start with results.

| IC50 (TRAF6/Uev1A/Ubc13) | IC50 ([1]; Homo sapiens, A549, ICAM assay) | IC50 (APC11/APC2) | SMILES | also measured |
| --- | --- | --- | --- | --- |
| ≥ 20 µM | ≥ 20 µM | ≥ 20 µM | COc1cccc(-c2cc(-c3cccc(OC)c3)c3nonc3c2)c1 [compound 421, 4,6-bis(3-methoxyphenyl)-2,1,3-benzoxadiazole] | – |
| ≥ 20 µM | ≥ 20 µM | ≥ 20 µM | Cc1ccc(-c2cc([N+](=O)[O-])cc3nonc23)cc1 [compound 476, 6-nitro-4-p-tolyl-2,1,3-benzoxadiazole] | – |
| ≥ 20 µM | 1 to 20 µM | ≥ 20 µM | COc1ccc(OC)c(NS(=O)(=O)c2ccc(Cl)c3nonc23)c1 [compound 359, 7-chloro-N-(2,5-dimethoxyphenyl)-2,1,3-benzoxadiazole-4-sulfonamide] | – |
| 1 to 20 µM | 1 to 20 µM | 1 to 20 µM | COc1cccc(NS(=O)(=O)c2ccc(Sc3cccc4ccccc34)c3nonc23)c1OC [compound 413, N-(2,3-dimethoxyphenyl)-7-(naphthalen-1-ylthio)-2,1,3-benzoxadiazole-4-sulfonamide] | – |
| ≥ 20 µM | ≥ 20 µM | ≥ 20 µM | Cc1cc(F)ccc1NS(=O)(=O)c1ccc(Cl)c2nonc12 [compound 358, 7-chloro-N-(4-fluoro-2-methylphenyl)-2,1,3-benzoxadiazole-4-sulfonamide] | – |
| 1 to 20 µM | ≥ 20 µM | ≥ 20 µM | COC(=O)c1ccc(Cl)cc1Nc1ccc(S(=O)(=O)Nc2cc(Cl)ccc2C(=O)OC)c2nonc12 [compound 361, methyl 4-chloro-2-(7-[N-{5-chloro-2-(methoxycarbonyl)phenyl}sulfamoyl]-2,1,3-benzoxadiazol-4-ylamino)benzoate] | – |
| 1 to 20 µM | ≥ 20 µM | – | O=[N+]([O-])c1ccc([S+]([O-])c2cccc3cccnc23)c2nonc12 (stereo not drawn) [compound 291, 8-[(7-nitro-2,1,3-benzoxadiazol-4-yl)sulfinyl]quinoline] | IC50 (A549 cells; [2]): < 1 µM; IC50 (H1299 cells; [3]): < 1 µM |
| 1 to 20 µM | – | 1 to 20 µM | N#Cc1cccnc1N1CCN(S(=O)(=O)c2c(Sc3cccc4cccnc34)ccc3nonc23)CC1 [compound 183, 2-(4-{[5-(quinolin-8-ylthio)-2,1,3-benzoxadiazol-4-yl]sulfonyl}piperazin-1-yl)nicotinonitrile] | – |
| 1 to 20 µM | – | 1 to 20 µM | O=[N+]([O-])c1ccc(Sc2cccc(Cl)c2)c2nonc12 [compound 149, 4-[(3-chlorophenyl)thio]-7-nitro-2,1,3-benzoxadiazole] | – |
| 1 to 20 µM | – | 1 to 20 µM | Cc1ccc(Sc2ccc([N+](=O)[O-])c3nonc23)cc1 [compound 157, 4-[(4-methylphenyl)thio]-7-nitro-2,1,3-benzoxadiazole] | – |
